The species entered for assay [1] is Mus musculus. The assay is described as follows: Effect on hexobarbital induced sleep was determined in hexobarbital potentiation test; Range (9.6-17.1). Type of assay: functional.
In assay [2] the test system is Mus musculus. The assay can be described thus: Antiaggressive anxiolytic activity in the electroshock-induced fighting test in mice (po); Range (1.03-4.7;). Type of assay: functional.
The species named for assay [3] is Mus musculus. The assay can be described thus: Ataxic activity in mice by rotarod test; Range (2.2-6.4). It counts as functional. For orientation: The rotarod test checks motor coordination on a turning rod.
The nature of assay [4]: Ratio of ED50 (hexobarbital) to that of ED50 (fighting). Type of assay: functional.
The nature of assay [5]: Ratio of ED50 (rotarod) to that of ED50 (fighting). It counts as functional.
The species named for assay [6] is Mus musculus. The assay is described as follows: Effect on alcohol induced sleep was determined in ethanol potentiation test; Range (26.6-77.9). Type of assay: functional.
Assay [7] relates to Mus musculus. The assay is described as follows: Effect on hexobarbital induced sleep was determined in hexobarbital potentiation test (po); Range (36.0-59.6). It counts as functional.
Assay [8] concerns Mus musculus. The assay is described as follows: Antiaggressive anxiolytic activity in the electroshock-induced fighting test in mice (po); Range (0.9-1.8). Type of assay: functional.
The species named for assay [9] is Mus musculus. The assay can be described thus: Ataxic activity in mice by rotarod test; Range (89.6-160.6). Type of assay: functional.
Another assay has as its system Rattus norvegicus. The assay can be described thus: Antiaggressive anxiolytic activity in the hexagonal maze test in rat after ip administration of 0.3 mg/kg. It counts as functional. Particulars: route intraperitoneal.
The species named for assay [10] is Mus musculus. The assay is described as follows: Effect on alcohol induced sleep was determined in ethanol potentiation test; Range. It counts as functional.
The species entered for assay [11] is Mus musculus. The assay is described as follows: Effect on hexobarbital induced sleep was determined in hexobarbital potentiation test; Range. It counts as functional.
The subject of assay [12] is Mus musculus. The assay is described as follows: Antiaggressive anxiolytic activity in the electroshock-induced fighting test in mice (po); Range (10.32-18.72). It counts as functional.
For assay [13], the species on record is Mus musculus. The assay is described as follows: Ataxic activity in mice by rotarod test; Range (64.3-92.1). Type of assay: functional.
The nature of assay [14]: Ratio of ED50 (ethanol) to that of ED50 (fighting). Type of assay: functional.
The subject of assay [15] is Monkey. The assay is described as follows: Tested for ability to maintain self-administration after administration of 0.3 mg/kg in monkey 3017 Range (28-50). Type of assay: functional, Cercopithecidae.
The subject of assay [16] is Monkey. The assay can be described thus: Tested for ability to maintain self-administration after administration of 0.3 mg/kg in monkey 3038 Range (12-32). It counts as functional, Cercopithecidae.
The test system of assay [17] is Monkey. The assay is described as follows: Tested for ability to maintain self-administration after administration of 0.3 mg/kg in monkey 9079 Range (32-53). It counts as functional, Cercopithecidae.
Assay [18] concerns Monkey. The assay can be described thus: Tested for ability to maintain self-administration after administration of 0.3 mg/kg in monkey 9083 Range (14-23). Type of assay: functional, Cercopithecidae.
In assay [19] the test system is Monkey. The assay can be described thus: Tested for ability to maintain self-administration after administration of 0.56 mg/kg in monkey 9079 Range (15-18). Type of assay: functional, Cercopithecidae.
Assay [20] concerns Monkey. The assay is described as follows: Tested for ability to maintain self-administration after administration of 0.01 mg/kg in monkey 2036 Range (25-28). Type of assay: functional, Cercopithecidae.
For assay [21], the system named is Monkey. The assay is described as follows: Tested for ability to maintain self-administration after administration of 0.01 mg/kg in monkey 2037 Range (33-51). Type of assay: functional, Cercopithecidae.
Assay [22] has as its system Monkey. The assay is described as follows: Tested for ability to maintain self-administration after administration of 0.01 mg/kg in monkey 3017 Range (14-22). It counts as functional, Cercopithecidae.
Assay [23] has as its system Monkey. The assay is described as follows: Tested for ability to maintain self-administration after administration of 0.03 mg/kg in monkey 2036 Range (30-36). It counts as functional, Cercopithecidae.
The subject of assay [24] is Monkey. The assay can be described thus: Tested for ability to maintain self-administration after administration of 0.03 mg/kg in monkey 2037 Range (63-73). It counts as functional, Cercopithecidae.
Assay [25] has as its system Monkey. The assay can be described thus: Tested for ability to maintain self-administration after administration of 0.03 mg/kg in monkey 3017 Range (26-29). Type of assay: functional, Cercopithecidae.
Assay [26] has as its system Monkey. The assay can be described thus: Tested for ability to maintain self-administration after administration of 0.03 mg/kg in monkey 3038 Range (0-14). Type of assay: functional, Cercopithecidae.
For assay [27], the system named is Monkey. The assay can be described thus: Tested for ability to maintain self-administration after administration of 0.03 mg/kg in monkey 9083 Range (19-47). It counts as functional, Cercopithecidae.
The test system of assay [28] is Monkey. The assay can be described thus: Tested for ability to maintain self-administration after administration of 0.1 mg/kg in monkey 2036 Range (37-43). It counts as functional, Cercopithecidae.
Assay [29] has as its system Monkey. The assay can be described thus: Tested for ability to maintain self-administration after administration of 0.1 mg/kg in monkey 2037. Type of assay: functional, Cercopithecidae.
The test system of assay [30] is Monkey. The assay can be described thus: Tested for ability to maintain self-administration after administration of 0.1 mg/kg in monkey 3017 Range ([…]). Type of assay: functional, Cercopithecidae.
Assay [31] relates to Monkey. The assay is described as follows: Tested for ability to maintain self-administration after administration of 0.1 mg/kg in monkey 3038 Range (42-58). Type of assay: functional, Cercopithecidae.
In assay [32] the test system is Monkey. The assay is described as follows: Tested for ability to maintain self-administration after administration of 0.1 mg/kg in monkey 9079 Range (5-20). It counts as functional, Cercopithecidae.
In assay [33] the test system is Monkey. The assay can be described thus: Tested for ability to maintain self-administration after administration of 0.1 mg/kg in monkey 9083 Range (20-32). Type of assay: functional, Cercopithecidae.
The test system of assay [34] is Monkey. The assay is described as follows: Tested for ability to maintain self-administration after administration of 0.3 mg/kg in monkey 2036 Range (10-12). Type of assay: functional, Cercopithecidae.
Assay [35] relates to Mus musculus. The assay is described as follows: Antiaggressive anxiolytic activity in the electroshock-induced fighting test in mice (po); Range (14.7-24.8). It counts as functional.

As a reminder, the ED50 is the dose that gives a 50% effect, or the effect in half of the subjects.

As to `CN1C(=O)CC(=O)N(c2ccccc2)c2cc(Cl)ccc21` [CLOBAZAM], the results for the ED50 in the assay filed under Mus musculus [1], with Mus musculus [2] and in the assay filed under Mus musculus [3] were 13.2 mg/kg, 2.35 mg/kg and 4.1 mg/kg, respectively. The Therapeutic index was found to be 5.6 in [4] and 1.8 in [5].
As for `COc1ccccc1N1CCN(CC(O)COc2cc(OC)c(OC)c(OC)c2)CC1.Cl` (stereo not drawn), the ED50 amounted to 45.5 mg/kg in the assay filed under Mus musculus [6], 46.4 mg/kg in the assay on Mus musculus [7], 1.4 mg/kg with Mus musculus [8] and 120 mg/kg in the assay listed under Mus musculus [9]. Also, the Prolongation with Rattus norvegicus is on record as 3.2%.
Take `O=C1CC2(CCCC2)CC(=O)N1CCCCN1CCN(c2ncccn2)CC1` [BUSPIRONE]: the ED50 was found to be 62.8 mg/kg in the assay filed under Mus musculus [10], 54.5 mg/kg in the assay listed under Mus musculus [11], 14.5 mg/kg in the assay on Mus musculus [12] and 77 mg/kg in the assay filed under Mus musculus [13]. The Therapeutic index in assay [14] is 0.8; in assay [4], 0.7; in [5], 5.3.
As for `CCN(CC)CCN1C(=O)CN=C(c2ccccc2F)c2cc(Cl)ccc21` [FLURAZEPAM], the Effect with Monkey [15] is listed as 40.3; with Monkey [16], 22; with Monkey [17] it was 44.7; in the assay with Monkey [18], 18.3; in the assay on Monkey [19] it was 16.7; in the assay with Monkey [20], 26. Moreover, the Effect is reported as 40.7 with Monkey [21]; 17.7 in the assay with Monkey [22]; 33 in the assay with Monkey [23]; 68 with Monkey [24]; 27.5 with Monkey [25]; 8 in the assay with Monkey [26]. Also, the Effect is recorded as 29 in the assay on Monkey [27]; 40 with Monkey [28]; 33 in the assay on Monkey [29]; 54.7 in the assay on Monkey [30]; 50 in the assay on Monkey [31]; 12.5 with Monkey [32]. For the same molecule, the Effect is listed as 26.3 in the assay on Monkey [33] and 11 in the assay on Monkey [34].
With `CCOc1ccccc1N1CCN(CC(O)COc2cc(OC)c(OC)c(OC)c2)CC1.Cl` (stereo not drawn), the 50% effect level in the assay on Mus musculus [35] (ED50) was put at a dose of 19 mg/kg.

For the origin of these results see ChEMBL document CHEMBL1125004, “Chemistry and pharmacology of the non-benzodiazepine anxiolytic enciprazine and related compounds” (1990).
